For orientation: IC50 means the concentration needed to halve the response being measured.

Chain of PDE3 enzyme (Q14432 whole entry): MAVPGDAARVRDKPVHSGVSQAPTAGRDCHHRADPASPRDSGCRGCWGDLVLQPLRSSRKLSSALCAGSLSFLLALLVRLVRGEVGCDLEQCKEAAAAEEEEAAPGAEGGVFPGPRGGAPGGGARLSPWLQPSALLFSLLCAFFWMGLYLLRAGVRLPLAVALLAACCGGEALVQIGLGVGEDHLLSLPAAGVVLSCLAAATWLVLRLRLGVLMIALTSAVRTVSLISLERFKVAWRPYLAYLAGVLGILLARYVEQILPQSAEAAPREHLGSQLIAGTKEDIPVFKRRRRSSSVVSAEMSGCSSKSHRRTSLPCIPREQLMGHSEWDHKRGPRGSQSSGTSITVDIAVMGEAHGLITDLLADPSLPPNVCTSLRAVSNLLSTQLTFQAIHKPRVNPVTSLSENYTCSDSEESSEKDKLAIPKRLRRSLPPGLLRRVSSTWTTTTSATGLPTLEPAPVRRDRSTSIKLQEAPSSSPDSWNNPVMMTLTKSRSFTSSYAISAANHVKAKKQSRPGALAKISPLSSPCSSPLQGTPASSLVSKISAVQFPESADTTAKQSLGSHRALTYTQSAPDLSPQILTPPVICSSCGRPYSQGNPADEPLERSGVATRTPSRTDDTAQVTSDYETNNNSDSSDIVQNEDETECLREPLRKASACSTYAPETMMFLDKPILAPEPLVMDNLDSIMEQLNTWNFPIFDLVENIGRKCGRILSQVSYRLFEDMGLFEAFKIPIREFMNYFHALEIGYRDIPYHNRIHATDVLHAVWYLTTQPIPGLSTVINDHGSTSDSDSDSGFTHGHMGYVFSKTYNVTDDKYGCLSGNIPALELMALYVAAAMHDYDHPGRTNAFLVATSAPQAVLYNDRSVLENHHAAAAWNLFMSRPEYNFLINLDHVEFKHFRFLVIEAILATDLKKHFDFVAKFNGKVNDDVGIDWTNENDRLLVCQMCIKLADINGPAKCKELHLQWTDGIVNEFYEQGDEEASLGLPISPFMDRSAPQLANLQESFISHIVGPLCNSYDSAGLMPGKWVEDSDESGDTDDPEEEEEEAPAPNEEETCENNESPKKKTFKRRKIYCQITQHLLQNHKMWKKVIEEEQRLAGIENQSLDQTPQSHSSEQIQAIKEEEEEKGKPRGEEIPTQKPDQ

The target of the test is PDE3 enzyme (Homo sapiens (Human), UniProt Q14432). Nature of the test: PDE3 inhibition assay, BIOMOL GREEN Quantizyme Assay System. The class given is biochemical. The settings on record: PDE3 enzyme from platelets isolated from human blood; cAMP substrate; 1 hour at 37° C.; read at 620 nm. The method, then:
PDE3 inhibition assay was performed a BIOMOL GREEN™ Quantizyme Assay System (catalogue No. BML-AK800-0001). The Platelets isolated from human blood were used as a source of PDE3 enzyme. 10 mL blood collected in a vacutainer tube (containing K3 EDTA) and centrifuged at 190×g for 15 min at room temperature. Top layer (platelet rich plasma) collected, centrifuged at 2500g for 5 min at 22° C. (Room temp.) The pellet was washed with 2 ml of 50 mM tris buffer (pH-7.4) containing 1 mM MgCl2 and centrifuged at 2500 g for 5 min. Then 200 μl of assay buffer (from PDE kit, Enzo Life Sciences) was added to the pellet and sonicated at 30 s per ml. Pellet was freeze thawed for three times (−80° C.) in order to rupture the platelet membrane and release the PDE enzyme. Then the cell homogenate was centrifuged at 2500 rpm for 5 min. Supernatant was collected and used as source for PDE3 enzyme. In 96 well plate (Prod. No. BML-KI101), we added supernatant having PDE3 enzyme, PDE3 assay buffer, cAMP substrate, 5′nucleotidase and test or standard compound and incubated for 1 hour at 37° C. The reaction was arrested by the addition 100 μl BIOMOL GREEN reagent incubated in room temp for 20 min. The green color developed was measured at 620 nm
The in vitro Phosphodiestarase (PDE3) inhibitory activity of compounds 1a-p were measured using a BIOMOL GREEN™ Quantizyme Assay System (catalogue No. BML-AK800-0001). The basic principle for this assay is the cleavage of c-AMP or c-GMP into their respective nucleotide by a cyclic nucleotide phosphodiesterase. The nucleotide (AMP or GMP) released is further cleaved into the nucleoside and phosphate by the enzyme 5′-nucleotidase. The extent of phosphate released is directly proportional to the PDE activity. In this screening method, the released phosphate by the enzymatic cleavage is quantified using BIOMOL GREEN reagent in a modified malachite green assay. The resulting green colour with λmax at 620 nm is directly proportional to the released phosphate and then PDE activity.
`CCOC(=O)c1cc(Cc2ccccc2)c(=O)n2c1CCC2` [Compound 1a, Ethyl 6-benzyl-5-oxo-1,2,3,5-tetrahydro-8-indolizinonecarboxylate] had an IC50 of 435 nM. In other words, the sub-micromolar range.
The value for `CCOC(=O)c1cc(Cc2cccc(F)c2)c(=O)n2c1CCC2` [Compound 1c, Ethyl 6-(3-fluorobenzyl)-5-oxo-1,2,3,5-tetrahydro-8-indolizinonecarboxylate] was 13.5 nM; that for `CCOC(=O)c1cc(Cc2ccc(F)cc2)c(=O)n2c1CCC2` [Compound 1d, Ethyl 6-(4-fluorobenzyl)-5-oxo-1,2,3,5-tetrahydro-8-indolizinonecarboxylate] was 1600 nM.
For the compound `CCOC(=O)c1cc(Cc2ccccc2Cl)c(=O)n2c1CCC2` [Compound 1e, Ethyl 6-(2-chlorobenzyl)-5-oxo-1,2,3,5-tetrahydro-8-indolizinonecarboxylate], half-maximal inhibition (IC50) was put at 129 nM. This IC50 is about 12-fold lower than that of the compound before.
For the compound `CCOC(=O)c1cc(Cc2ccc(Cl)cc2)c(=O)n2c1CCC2` [Compound 1g, Ethyl 6-(4-chlorobenzyl)-5-oxo-1,2,3,5-tetrahydro-8-indolizinonecarboxylate], half-maximal inhibition (IC50) was put at 108 nM. This IC50 and that of the compound before are within 1.5-fold of each other.
The figure for `CCOC(=O)c1cc(Cc2ccc(Cl)cc2Cl)c(=O)n2c1CCC2` [Compound 1h, Ethyl 6-(2,4-dichlorobenzyl)-5-oxo-1,2,3,5-tetrahydro-8-indolizinonecarboxylate] is 577 nM; for `CCOC(=O)c1cc(Cc2cccc(Br)c2)c(=O)n2c1CCC2` [Compound 1j, Ethyl 6-(3-bromobenzyl)-5-oxo-1,2,3,5-tetrahydro-8-indolizinonecarboxylate] it is 11.3 nM; for `CCOC(=O)c1cc(Cc2ccc(Br)cc2)c(=O)n2c1CCC2` [Compound 1k, Ethyl 6-(4-bromobenzyl)-5-oxo-1,2,3,5-tetrahydro-8-indolizinonecarboxylate] it is 67.3 nM.

(Values after patent US9249139B2, “Indolizinone based derivatives as potential phosphodiesterase 3 (PDE3) inhibitors and a process for the preparation thereof” (COUNCIL OF SCIENTIFIC & INDUSTRIAL RESEARCH, priority 2013, dated 2016).)
